Test results from US11685714B2, “Prodrugs of cytotoxic active agents having enzymatically cleavable groups” (BAYER PHARMA AKTIENGESELLSCHAFT, priority 2016, dated 2023).
Where a name gives a salt, the structure may show the parent alone. One block for each molecule: values may come before it.

Legend:
Assay type in all cases: cell-based
[1] = system: NCI-H292: human mucoepidermoid lung carcinoma cells; test: MTT assay on NCI-H292; conditions: 96 h incubation
Experimental: (§1) The analysis of the cytotoxic effects of the ADCs was carried out with various cell lines:
(§2) The cells were cultivated by the standard method as stated by the American Tissue Culture Collection (ATCC) or the Leibniz-lnstitut DSMZ-Deutsche Sammlung von Mikroorganismen und Zellkulturen GmbH (DSMZ) for the cell lines in question.
(§3) The cells were then incubated in an incubator at 37° C. and 5% carbon dioxide. […] To this end, the MTT reagent was incubated with the cells for 4 h, followed by lysis of the cells overnight by addition of the detergent. […] The measured data were used to calculate the ICo50 of the growth inhibition using the DRC (dose response curve). The proliferation of cells which were not treated with test substance but were otherwise identically treated was defined as the 100% figure.

[2] = system: SK-HEP-1: human liver cell cancer line; test: MTT assay on SK-HEP-1; conditions: SK-HEP1, 96 h, growth inhibition, 96 h incubation
Experimental: as §1, §2, §3

[3] = system: KPL4: human breast cancer cell line; test: MTT assay on KPL4; conditions: 96 h incubation
Experimental: as §1, §2, §3

[4] = NCI-H292, 96 h, growth inhibition

SMILES: CC(C)(C)[C@H](c1cc(-c2cc(F)ccc2F)cn1Cc1ccccc1)N(CC[C@H](N)C(=O)NCCC(=O)NCCCC[C@H](N)C(=O)O)C(=O)CO [Example M19, N^6—(N-{(2S)-2-Amino-4-[{(1R)-1-[1-benzyl-4-(2,5-difluorophenyl)-1H-pyrrol-2-yl]-2,2-dimethylpropyl}(glycoloyl)amino]butanoyl}-beta-alanyl)-L-lysine/trifluoroacetic acid (1:1)]
IC50 [1, 4]: 121 nM

SMILES: CC(C)(C)[C@H](c1cc(-c2cc(F)ccc2F)cn1Cc1ccccc1)N(CC[C@H](N)C(=O)NCCNC(=O)CNC(=O)C(CC(=O)O)SC[C@H](N)C(=O)O)C(=O)CO (stereo partly drawn) [Example M27, 4-[(2-{[2-({(2S)-2-Amino-4-[{(1R)-1-[1-benzyl-4-(2,5-difluorophenyl)-1H-pyrrol-2-yl]-2,2-dimethylpropyl}(glycoloyl)amino]butanoyl}amino)ethyl]amino}-2-oxoethyl)amino]-3-{[(2R)-2-amino-2-carboxyethyl]sulphanyl}-4-oxobutanoic acid/trifluoroacetic acid (1:1)]
IC50 [1, 4]: 276 nM
IC50 [2]: 89 nM

SMILES: CC(C)(C)[C@H](c1cc(-c2cc(F)ccc2F)cn1Cc1ccccc1)N(CC[C@H](N)C(=O)NCCNC(=O)CN1C(=O)CC(SC[C@H](N)C(=O)O)C1=O)C(=O)CO (stereo partly drawn) [Example M1, S-[1-(2-{[2-({(2S)-2-Amino-4-[{(1R)-1-[1-benzyl-4-(2,5-difluorophenyl)-1H-pyrrol-2-yl]-2,2-dimethylpropyl}(glycoloyl)amino]butanoyl}amino)ethyl]amino}-2-oxoethyl)-2,5-dioxopyrrolidin-3-yl]-L-cysteine/trifluoroacetic acid (1:1)]
IC50 [1, 4]: 500 nM
IC50 ([3]; KPL4, 96 h, growth inhibition): 500 nM

SMILES: CC(C)(C)[C@H](c1cc(-c2cc(F)ccc2F)cn1Cc1ccccc1)N(CCCN)C(=O)CSC[C@H](NC(=O)CCC(=O)O)C(=O)O [Example M12, 4-{[(1R)-2-({2-[(3-Aminopropyl){(1R)-1-[1-benzyl-4-(2,5-difluorophenyl)-1H-pyrrol-2-yl]-2,2-dimethylpropyl}amino]-2-oxoethyl}sulphanyl)-1-carboxyethyl]amino}-4-oxobutanoic acid/trifluoroacetic acid (1:1)]
IC50 [1, 4]: 33 nM
IC50 [2]: 21.1 nM

SMILES: CC(C)(C)[C@H](c1cc(-c2cc(F)ccc2F)cn1Cc1ccccc1)N(CC[C@H](N)C(=O)NCCNC(=O)CNC(=O)CC(SC[C@H](N)C(=O)O)C(=O)O)C(=O)CO (single isomer, unassigned) [Example M14]
IC50 [1, 4]: 174 nM
IC50 [2]: 94.3 nM
IC50 ([3]; KPL4, 96 h, growth inhibition): 177 nM

SMILES: CC(C)(C)[C@H](c1cc(-c2cc(F)ccc2F)cn1Cc1ccccc1)N(CC[C@H](N)C(=O)NCCNC(=O)CC[C@H](N)C(=O)O)C(=O)CO [Example M18, N-[2-({(2S)-2-Amino-4-[{(1R)-1-[1-benzyl-4-(2,5-difluorophenyl)-1H-pyrrol-2-yl]-2,2-dimethylpropyl}(glycoloyl)amino]butanoyl}amino)ethyl]-L-glutamine/trifluoroacetic acid (1:1)]
IC50 [1, 4]: 35.5 nM

IC50 ([1]; NCI-H292, growth inhibition): 0.27 nM
IC50 ([3]; KPL4, growth inhibition): 0.514 nM
SMILES: CC(C)(C)[C@H](c1cc(-c2cc(F)ccc2F)cn1Cc1ccccc1)N(CCCN)C(=O)CO [Example M9, N-(3-Aminopropyl)-N-{(1R)-1-[1-benzyl-4-(2,5-difluorophenyl)-1H-pyrrol-2-yl]-2,2-dimethylpropyl}-2-hydroxyacetamide]

SMILES: CC(C)(C)[C@H](c1cc(-c2cc(F)ccc2F)cn1Cc1ccccc1)N(CCCN)C(=O)CSC[C@H](NC(=O)CCOCCOCCOCCOCCNC(=O)CNC(=O)CC(SC[C@H](N)C(=O)O)C(=O)O)C(=O)O (stereo partly drawn) [Example M20, (1R,4R,27R,33R)-1-Amino-32-(3-aminopropyl)-33-[1-benzyl-4-(2,5-difluorophenyl)-1H-pyrrol-2-yl]-34,34-dimethyl-6,9,25,31-tetraoxo-13,16,19,22-tetraoxa-3,29-dithia-7,10,26,32-tetraazapentatriacontane-1,4,27-tricarboxylic acid/trifluoroacetic acid (1:2)]
IC50 [1, 4]: 149 nM
IC50 [2]: 181 nM
IC50 ([3]; KPL4, 96 h, growth inhibition): 213 nM

SMILES: CC(C)(C)[C@H](c1cc(-c2cc(F)ccc2F)cn1Cc1ccccc1)N(CC[C@H](N)C(=O)NCCNC(=O)CSC[C@H](N)C(=O)O)C(=O)CO [Example M7, S-(2-{[2-({(2S)-2-Amino-4-[{(1R)-1-[1-benzyl-4-(2,5-difluorophenyl)-1H-pyrrol-2-yl]-2,2-dimethylpropyl}(glycoloyl)amino]butanoyl}amino)ethyl]amino}-2-oxoethyl)-L-cysteine/trifluoroacetic acid (1:1)]
IC50 [1, 4]: 21.2 nM
IC50 ([3]; KPL4, 96 h, growth inhibition): 92.3 nM

SMILES: CC(C)(C)[C@H](c1cc(-c2cc(F)ccc2F)cn1Cc1ccccc1)N(CC[C@H](N)C(=O)NCCNC(=O)CNC(=O)C(CC(=O)O)SC[C@H](N)C(=O)O)C(=O)CO (single isomer, unassigned) [Example M15]
IC50 [1, 4]: 133 nM
IC50 [2]: 49.8 nM
IC50 ([3]; KPL4, 96 h, growth inhibition): 169 nM

SMILES: CC(C)(C)[C@H](c1cc(-c2cc(F)ccc2F)cn1Cc1ccccc1)N(CC[C@H](N)C(=O)NCCC(=O)N[C@@H](CCC(=O)O)C(=O)O)C(=O)CO [Example M23, N-{(2S)-2-Amino-4-[{(1R)-1-[1-benzyl-4-(2,5-difluorophenyl)-1H-pyrrol-2-yl]-2,2-dimethylpropyl}(glycoloyl)amino]butanoyl}-beta-alanyl-L-glutamic acid/trifluoroacetic acid (1:1)]
IC50 [1, 4]: 500 nM
IC50 [2]: 500 nM
IC50 ([3]; KPL4, 96 h, growth inhibition): 500 nM

SMILES: CC(C)(C)[C@H](c1cc(-c2cc(F)ccc2F)cn1Cc1ccccc1)N(CC[C@H](N)C(=O)O)C(=O)CO [Example M17, (2S)-2-Amino-4-[{(1R)-1-[1-benzyl-4-(2,5-difluorophenyl)-1H-pyrrol-2-yl]-2,2-dimethylpropyl}(glycoloyl)amino]butanoic acid hydrochloride (1:1)]
IC50 [1, 4]: 7.35 nM

SMILES: CC(C)(C)[C@H](c1cc(-c2cc(F)ccc2F)cn1Cc1ccccc1)N(CC[C@H](N)C(=O)NCCNC(=O)CNC(=O)CC1SC[C@@H](C(=O)O)NC1=O)C(=O)CO (stereo partly drawn) [Example M08, (3R)-6-{(11 S,15R)-11-Amino-15-[1-benzyl-4-(2,5-difluorophenyl)-1H-pyrrol-2-yl]-14-glycoloyl-16,16-dimethyl-2,5,10-trioxo-3,6,9,14-tetraazaheptadec-1-yl}-5-oxothiomorpholine-3-carboxylic acid/trifluoroacetic acid (1:1)]
IC50 ([3]; KPL4, 96 h, growth inhibition): 487 nM

SMILES: CC(C)(C)[C@H](c1cc(-c2cc(F)ccc2F)cn1Cc1ccccc1)N(CCCN)C(=O)CSC[C@H](N)C(=O)O [Example M11, S-{2-[(3-Aminopropyl){(1R)-1-[1-benzyl-4-(2,5-difluorophenyl)-1H-pyrrol-2-yl]-2,2-dimethylpropyl}amino]-2-oxoethyl}-L-cysteine/trifluoroacetic acid (1:2)]
IC50 [1, 4]: 0.0432 nM
IC50 [2]: 0.189 nM

SMILES: CC(C)(C)[C@H](c1cc(-c2cc(F)ccc2F)cn1Cc1ccccc1)N(CC[C@H](N)C(=O)NCCOCCN1C(=O)CC(SC[C@H](N)C(=O)O)C1=O)C(=O)CO (stereo partly drawn) [Example M4, S-(1-{2-[2-({(2S)-2-Amino-4-[{(1R)-1-[1-benzyl-4-(2,5-difluorophenyl)-1H-pyrrol-2-yl]-2,2-dimethylpropyl}(glycoloyl)amino]butanoyl}amino)ethoxy]ethyl}-2,5-dioxopyrrolidin-3-yl)-L-cysteine/trifluoroacetic acid (1:1)]
IC50 [1, 4]: 44.3 nM
IC50 [2]: 34.5 nM
IC50 ([3]; KPL4, 96 h, growth inhibition): 176 nM

SMILES: CC(C)(C)[C@H](c1cc(-c2cc(F)ccc2F)cn1Cc1ccccc1)N(CC[C@H](N)C(=O)NCCNC(=O)CNC(=O)CC(SC[C@H](N)C(=O)O)C(=O)O)C(=O)CO (single isomer, unassigned) [Example M13]
IC50 [1, 4]: 152 nM
IC50 [2]: 68.1 nM
IC50 ([3]; KPL4, 96 h, growth inhibition): 169 nM

SMILES: CC(C)(C)[C@H](c1cc(-c2cc(F)ccc2F)cn1Cc1ccccc1)N(CC[C@H](N)C(=O)NCCC(=O)N[C@H](CCC(=O)O)C(=O)O)C(=O)CO [Example M24, N-{(2S)-2-Amino-4-[{(1R)-1-[1-benzyl-4-(2,5-difluorophenyl)-1H-pyrrol-2-yl]-2,2-dimethylpropyl}(glycoloyl)amino]butanoyl}-beta-alanyl-D-glutamic acid/trifluoroacetic acid (1:1)]
IC50 [1, 4]: 167 nM
IC50 [2]: 57.3 nM
IC50 ([3]; KPL4, 96 h, growth inhibition): 500 nM
